From patent US12486254B2, “Uracil derivatives for stimulating read-through of premature termination codons” (Southern Research Institute, priority 2022, dated 2025)

Legend:
G542X#10-HBE5x5 = test: Read-through of a premature termination codon, G542X#10-HBE5x5 (Table 3); assay type: cell-based; settings: with G418
Method: (§1) The compounds shown in Table 1 were evaluated for their ability to stimulate read-through of a premature termination codon, and their respective activities are shown in Tables 2 and 3 below.

W134X-CF#14 FRT = test: Read-through of a premature termination codon, W134X-CF#14 FRT data, with G418; assay type: cell-based; settings: in presence of G418
Method: as §1

Structure (SMILES)	EC50 (G542X#10-HBE5x5) [µM]	EC50 (W134X-CF#14 FRT) [µM]
CCn1c(=O)c(C(=O)CN(Cc2ncc[nH]2)C(C)C)c(N)n(Cc2ccccc2)c1=O [1.57]	≥ 100	15.4
CCn1c(=O)c(C(=O)CN2CCCCC2c2nc(C)no2)c(N)n(Cc2ccccc2)c1=O (stereo not shown) [1.86]	≥ 100	56.1
CCn1c(=O)c(C(=O)CN2CCCCC2C(=O)N2CCN(C)CC2)c(N)n(Cc2ccccc2)c1=O (stereo not shown) [1.96]	≥ 100	58.5
NC(=O)C1CCCCN1CC(=O)c1c(N)n(Cc2ccc(Cl)cc2)c(=O)n(Cc2ccc(Cl)cc2)c1=O (stereo not shown) [1.107]	7.03	4.52
CCn1c(=O)c(C(=O)CN2CCCCC2C(N)=O)c(N)n(Cc2cccs2)c1=O (stereo not shown) [1.112]	≥ 100	3.46
CCn1c(=O)c(C(=O)CN2CCCCC2C(=O)N(C)C)c(N)n(Cc2cccs2)c1=O (stereo not shown) [1.113]	≥ 100	5.79
CCn1c(=O)c(C(=O)CN2CCC(C)CC2C(N)=O)c(N)n(Cc2ccc(F)cc2)c1=O (stereo not shown) [1.131]	≥ 100	4.7
CCn1c(=O)c(C(=O)CNC(C)C)c(N)n(Cc2ccc(F)cc2)c1=O [1.138, 6-amino-3-ethyl-1-[(4-fluorophenyl)methyl]-5-[2-(isopropylamino)acetyl]pyrimidine-2,4-dione]	≥ 100	79.1
NC(=O)C1CCCCN1CC(=O)c1c(N)n(Cc2ccc(F)cc2)c(=O)n(CC2CCC2)c1=O (stereo not shown) [1.140]	≥ 100	6.34
CCn1c(=O)c(C(=O)CN(CC(N)=O)C(C)C)c(N)n(Cc2ccc(F)cc2F)c1=O [1.149]	41.7	3.2
Nc1c(C(=O)CN2CCCC[C@@H]2C(=O)N2CCCCC2)c(=O)n(Cc2ccc(F)cc2)c(=O)n1Cc1ccc(F)cc1 [1.152]	25	3.13
CCn1c(=O)c(C(=O)CN2CCCC[C@@H]2C(=O)NCC2CC2)c(N)n(Cc2ccccc2)c1=O [1.158]	≥ 100	2.59
CCn1c(=O)c(C(=O)CN2CCCCC2=O)c(N)n(Cc2ccc(F)cc2)c1=O [1.165]	≥ 100	≥ 100
CCn1c(=O)c(C(=O)CN2CCCCC2C(C)C)c(N)n(Cc2ccc(F)cc2)c1=O (stereo not shown) [1.175]	≥ 100	8.49
CCn1c(=O)c(C(=O)CN(CC(=O)N2CCCCC2)C(C)C)c(N)n(Cc2ccc(F)cc2)c1=O [1.176]	≥ 100	1.63
CCn1c(=O)c(C(=O)CN2CCCCC2CN(C)C)c(N)n(Cc2ccc(F)cc2)c1=O (stereo not shown) [1.177]	≥ 100	65.1
CCn1c(=O)c(C(=O)CNc2cc(OC)c(OC)c(OC)c2)c(N)n(Cc2ccc(F)cc2)c1=O [1.183]	≥ 100	25.7
CCn1c(=O)c(C(=O)CN2CCCC[C@@H]2c2nccn2C)c(N)n(Cc2ccc(F)cc2)c1=O [1.190]	≥ 100	3.26
CCn1c(=O)c(C(=O)CN2CCCC2)c(N)n(Cc2ccc(F)cc2)c1=O [1.194]	≥ 100	29.7
CCn1c(=O)c(C(=O)CN2CCCC[C@@H]2c2ncc[nH]2)c(N)n(Cc2ccc(F)cc2)c1=O [1.196]	≥ 100	1.56
CCn1c(=O)c(C(=O)CN(CC(=O)N2CCC(F)(F)CC2)C(C)C)c(N)n(Cc2ccc(F)cc2)c1=O [1.203]	≥ 100	4.1
CCn1c(=O)c(C(=O)CNc2ccc(C(N)=O)cc2)c(N)n(Cc2ccc(F)cc2)c1=O [1.206]	18.1	13
CCn1c(=O)c(C(=O)CNc2ccccc2C(N)=O)c(N)n(Cc2ccc(F)cc2)c1=O [1.207]	26.2	35.7
